Results as given in PMC8752738, “A propolis-derived small molecule ameliorates metabolic syndrome in obese mice by targeting the CREB/CRTC2 transcriptional complex” (Nature Communications, 2022).
Values joined by “and” are separate entries in the source; they are usually repeats but may differ in a detail not shown here. Equal values may be shown once.

Key:
G6pc promoter (G6p-Luc) = experiment: G6p-Luc reporter in primary hepatocytes; type: cell-based, mouse; conditions: APC 10 μM, 8-h
luciferase = molecular target: T1, luciferase (Photinus pyralis, UniProt P08659); experiment: Luciferase enzymatic assay; type: biochemical; conditions: lysate of HEK293T cells expressing CRE-Luc, 30 min
T1 construct: expressed in transfected cells; host or cells: HEK293T (lysate incubated with compound)
T1 sequence (P08659 whole entry): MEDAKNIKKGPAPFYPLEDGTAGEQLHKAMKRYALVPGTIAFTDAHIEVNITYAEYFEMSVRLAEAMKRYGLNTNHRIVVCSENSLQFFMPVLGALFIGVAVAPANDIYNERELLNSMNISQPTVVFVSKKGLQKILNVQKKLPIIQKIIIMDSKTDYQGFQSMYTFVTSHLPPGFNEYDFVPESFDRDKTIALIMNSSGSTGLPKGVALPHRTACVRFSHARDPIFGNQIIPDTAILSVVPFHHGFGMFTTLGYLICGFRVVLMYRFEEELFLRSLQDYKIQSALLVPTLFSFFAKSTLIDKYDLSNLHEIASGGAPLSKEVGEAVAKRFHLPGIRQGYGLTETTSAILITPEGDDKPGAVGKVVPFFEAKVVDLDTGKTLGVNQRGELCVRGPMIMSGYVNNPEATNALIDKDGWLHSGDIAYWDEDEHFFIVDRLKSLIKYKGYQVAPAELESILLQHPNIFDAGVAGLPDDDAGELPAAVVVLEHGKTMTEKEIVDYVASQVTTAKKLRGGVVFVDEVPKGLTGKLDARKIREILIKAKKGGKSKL
Method: HEK293T cells (4 × 10^5 per well of 24-well-plate) were transfected with plasmids expressing CRE-luciferase reporter (50 ng) together with RSV-β-gal (20 ng) by PEI-media overnight and induced by FSK (forskolin 10 nM) for 6-h. The cells were then collected in the lysis buffer (25 mM Gly-gly, 15 mM MgSO4, 4 mM EGTA, 1% V/V Triton X-100, 1 mM DTT, pH 7.8), mixed with an equal volume of luciferase substrate buffer (25 mM Gly-gly, 15 mM MgSO4, 4 mM EGTA, 250 mM potassium phosphate, 2.5 mM ATP, 2 mM DTT, 5 mg/mL luciferin, pH 7.8), and subjected to EnVision Multimode Plate Reader (Perkin/Elmer) to determine generated fluorescent signals.
13 d) Luciferase enzyme activity. The luciferase enzymatic activity from HEK293T cells incubated
The cells ectopically expressed luciferase (CRE-Luc) and were stimulated with FSK (10
15 nM) for 5 h before lysis, and then incubated with various concentrations of propolis for 30 min before
16 luciferase activity determination. One of two independent experiments presented here. Data are
17 represented as mean ± SEM (n=3 per treatment). ns, p > 0.05; *, p < 0.05; **, p < 0.01; p values were
18 determined by one-way ANOVA followed Dunnett’s multiple comparisons test.
13 f) The luciferase enzymatic activity of HEK293T incubated with APC. Cells over-expressed […]

[1] = molecular target: T2, GST-CREB / HIS-CRTC2-S171A interaction (Homo sapiens, UniProt P16220); experiment: In vitro pull-down with purified GST-CREB and HIS-CRTC2-S171A; type: biochemical; conditions: for Relative HIS/GST in GST-pull down fraction: Fig 2d replicates
T2 construct: made in house; host or cells: E. coli
T2 sequence (P16220 whole entry, stated change not applied): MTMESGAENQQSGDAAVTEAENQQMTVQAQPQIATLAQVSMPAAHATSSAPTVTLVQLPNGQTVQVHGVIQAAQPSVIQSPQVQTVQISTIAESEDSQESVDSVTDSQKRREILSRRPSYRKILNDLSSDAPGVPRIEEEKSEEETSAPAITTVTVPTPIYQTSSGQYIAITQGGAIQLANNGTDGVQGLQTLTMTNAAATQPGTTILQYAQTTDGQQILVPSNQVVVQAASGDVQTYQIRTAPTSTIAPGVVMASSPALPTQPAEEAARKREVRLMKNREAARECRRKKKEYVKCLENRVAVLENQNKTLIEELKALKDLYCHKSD
From the text: To further confirm whether APC disrupts the protein association between CREB and CRTC2, we performed GST-pull-down assays in which GST-CREB beads were used to immunoprecipitated FLAG-tagged CRTC2 proteins that were expressed in HEK293T cells. As expected, APC attenuated the amounts of FLAG-CRTC2 proteins recovered by GST-CREB beads from HEK293T cell lysates (Fig. 2a). […] In contrast, APC had little effect on the association of GST-CREB with HA-P300 (Supplementary Fig. 2a), as well as the interaction between endogenous CRTC2 and CBP proteins (Fig. 2c). Moreover, the interactions of CREB and the isoforms CRTC1 and CRTC3 were also attenuated by APC in overexpression HEK293T cells (Supplementary Fig. 2b, c).
Fig. 2 APC blocks interaction between CREB and CRTC2. a Analysis of GST-CREB immunoprecipitated with overexpressed FLAG-CRTC2 from the lysates of HEK293T cells. APC (10 μM) was added to the culture media for 1 h and the following IP mixture. The relative gray density of FLAG in GST-pull-down fraction is shown as a bar graph (bottom). One of three independent experiments is presented (top, n = 3). Data are represented as mean ± SEM); P values were determined by one-way ANOVA followed Dunnett’s multiple comparisons test. b Analysis of HA-CRTC2 immunoprecipitated with endogenous CREB from primary hepatocyte lysates. APC (10 μM) was added to the culture media for 1-h before 30-min of stimulation with glucagon (Gluc, 100 nM) and the following IP mixture as indicated. Top panel presents one of three independent experiments, and the relative gray density of HA in CREB-IP-faction is shown as a bar graph (bottom, n = 3). Data are represented as mean ± SEM; P values were determined by one-way ANOVA followed Dunnett’s multiple comparisons test. c Immunoblotting analysis of endogenous CREB, CRTC2, and CBP interaction by an anti-CRTC2 antibody from the lysate of primary hepatocytes. APC (10 μM) was added to the culture media for 1-h before 30-min stimulation with glucagon. Related CREB and CBP normalized by CRTC2, respectively, in CRTC2-IP fractions. The top panel presents one of three independent experiments, and the relative gray density of CREB and CBP normalized to CRTC2 in the CRTC2-IP-faction is shown as a bar graph (bottom, n = 3). Data are represented as mean ± SEM; P values were determined by two-way ANOVA followed Bonferroni’s multiple comparisons test. d Immunoblotting analysis of protein GST-CREB recovered HIS-CRTC2-S171A proteins purified from E. coli. The addition of APC (5, 10, or 50 μM) in pull-down mixtures is indicated. […] Data are represented as mean ± SEM; P values were determined by one-way ANOVA followed Dunnett’s multiple comparisons test (compared with APC = 0).

HIS-CREB protein = molecular target: T3, HIS-CREB protein (Homo sapiens, UniProt P16220); experiment: Isothermal titration calorimetry; type: binding; conditions: HIS-CREB titrated into APC solution, one-site model; read-out: equilibrium dissociation constant (KD) between APC and CREB
T3 construct: made in house
T3 sequence (P16220 whole entry): as the sequence (P16220 whole entry, stated change not applied) above
Method: Isothermal titration calorimetry was performed using a MicroCal iTC200 calorimeter (Freiburg, Germany). The purified HIS-CREB protein and APC were diluted in buffer (PBS with 500 mM NaCl and 10% glycine, pH 8.0). APC solution was titrated by injection of HIS-CREB. The originally released heat from molecules binding was recorded and analyzed by Origin9 software (Origin Lab) supplied with the instrument.

CREB / CRTC1 interaction = molecular target: T4, CREB / CRTC1 interaction (Homo sapiens, UniProt P16220); experiment: Co-immunoprecipitation of GFP-CRTC1 by MYC-CREB, HEK293T; type: cell-based; conditions: overexpression HEK293T cells, APC 10 μM
T4 construct: expressed in transfected cells; host or cells: HEK293T
T4 sequence (P16220 whole entry): as the sequence (P16220 whole entry, stated change not applied) above
Method: 1 Supplementary Figure 2.
2 a) Immunoblot of HA-P300 recovered from HEK293T cell lysate using GST-CREB beads. APC
3 (10 μM) was incubated with cells for 1-h before FKS (10 nM) stimulation and was included in the
4 following pull-down mixtures (n=3). One of two independent experiments presented here.
5 b) Immunoblot for recovered GFP-CRTC1 or (c) GFP-CRTC3 immunoprecipitated by MYC-CREB
6 from overexpression HEK293T cell line. APC (10 μM) was incubated with cells for 1-h before FKS
7 (10 nM) stimulation and was included in the following pull-down mixtures. One of two independent
8 experiments presented here.
9 d) SPR sonogram traces of APC binding with HIS-CREB proteins immobilized to NTA-chip. The
10 concentration series of APC was as indicated.
11 e) SPR sonogram traces of APC flowing through HIS-CRTC2-S171A proteins immobilized on
12 NTA-chip. The concentration of APC was as indicated.
13 f) The luciferase enzymatic activity of HEK293T incubated with APC. Cells over-expressed
14 luciferase CRE-Luc reporter and were stimulated by FSK (10 nM) for 5-h before lysis, which was
15 then incubated with APC (concentration indicated) for 30 min before luciferase activity determination
16 (n=3 per treatment). Data are represented as mean ± SEM. *, p < 0.05; **, p < 0.01; p values were
17 determined by one-way ANOVA followed Dunnett’s multiple comparisons test. […]

SMILES: CC(C)=CCc1cc(C=CC(=O)O)cc(CC=C(C)C)c1O [APC, 3,5-diprenyl-4-hydroxycinnamic acid]
- CRTC2-S171A induced G6p-luciferase activity (G6pc promoter (G6p-Luc)): reduced
- effect on luciferase enzymatic activity (luciferase): no effect
- Relative HIS/GST in GST-pull down fraction ([1]; APC 5 uM): 0.8055 and 0.8618 and 0.7881
- Relative HIS/GST in GST-pull down fraction ([1]; APC 10 uM): 0.4842 and 0.3120 and 0.3223
- Relative HIS/GST in GST-pull down fraction ([1]; APC 50 uM): 0.1707 and 0.1125 and 0.1021
- HIS-CRTC2-S171A recovered by GST-CREB ([1]; purified proteins, APC 5, 10, 50 μM, dose-dependent): significantly diminished
- Kd (HIS-CREB protein): ~3.2 µM and 3.2 µM
- interaction of CREB and CRTC1 (CREB / CRTC1 interaction): attenuated
